Entries after “also recorded” stand apart in the source; their conditions may differ.
What was measured:
Assay type in all cases: cell-based, human
[1] = system: TMD8 WT and TMD8 CRBN resist. cells; assay: CellTiter-Glo viability, TMD8 WT vs CRBN resist. cells; conditions: CellTiter-Glo proliferation
Description: TMD8 cells were grown in the presence of a CRBN-BTK PROTAC CBt using a gradual dose increase. Start treatment was 0.1 nM for 6 weeks, followed by 3 weeks at 0.4 nM and another 4 weeks at 10 nM to finally obtain CBt resistant TMD8 cells (TMD8 CRBN resist.).
d) Viability measured by cell titer-Glo for DBt-10 (green) vs (13) (purple) in WT (solid) vs CRBN resist.
(dotted) TMD8 cells. Data represents average ± standard deviation from n=3 replicates.
e) Repeat of the viability measured by cell titer-Glo for DBt-10 (green) vs (13) (purple) in WT (solid) vs
CRBN resist. (dotted) TMD8 cells with adjusted dose response range. Data represents average ±
standard deviation from n=3 replicates.
Source data are provided as a Source Data file

HEK293T cells = assay: Whole proteomics profile, DDa-1 vs (13), HEK293T cells; conditions: 5 µM DDa-1 vs 5 µM (13), 6 h
Description: HEK293T and TMD8 cells were cultured according to protocol and 3 million cells were plated per sample and recovered for 24 h. The following day, cells were treated with indicated compounds at corresponding concentrations for 6 h. Cells were then harvested and washed 2× with PBS before removing all liquid and snap freezing in liquid nitrogen before sample preparation for proteomics.
TMT-labeled peptides were generated with the iST-NHS kit (PreOmics) and TMT10plex (duplicates per condition) or TMT18plex (triplicates per condition) reagent (Thermo Fisher Scientific). Equal amounts of labeled peptides were pooled and separated on a high pH fractionation system with a water-acetonitrile gradient containing 10 mM ammonium formate, pH 11[88]. Alternating rows of the resulting 72 fractions were pooled into 24 samples, dried and resuspended in water containing 0.1% formic acid.
The LC-MS analysis was carried out on an EASY-nLC 1200 system coupled to an Orbitrap Fusion Lumos Tribrid mass spectrometer (Thermo Fisher Scientific). […]
LC-MS raw files were analyzed with Proteome Discoverer 2.4 (Thermo Fisher Scientific). […] TMT reporter ions of the MS3 spectra were integrated with a 20 ppm tolerance and the reporter ion intensities were used for quantification. […] Protein relative quantification was performed using an in-house developed R (v.3.6) script. […]

TMD8 BTK-GFP/mCh cells = assay: Viability by FSC/SSC gate (flow cytometry) in TMD8 BTK-GFP/mCh cells
How it was run: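 TMD8 BTK-GFP/mCh cells (25,000/well) dosed with compound for 24 h and analysed by flow cytometry. Viability is the decline in percentage of single cells within an FSC/SSC gate defined by DMSO-treated cells; three biological replicates, 4-parameter logistic fit.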

Cc1c(NC(=O)N2CC(O)(CC(C)(C)C)C2)cc(F)cc1-c1ncnc2[nH]c(-c3cnn(CC(=O)N4CCC5(CC4)CN(CCNC(=O)CCCC(=O)N4CCN(c6ccc7c(NCCN)nc(C8(c9ccc(Cl)cc9)CCCCC8)nc7c6)CC4)CCO5)c3)cc12 [DBt-10]
relative potency change between CBt sensitive and resistant TMD8 cells [1]: did not show any relative potency differences

Cc1nc(Nc2ncc(C(=O)Nc3c(C)cccc3Cl)s2)cc(N2CCC(OC3CCN(CCCCCCCC(=O)N4CCN(c5ccc6c(NCCN)nc(C7(c8ccc(Cl)cc8)CCCCC7)nc6c5)CC4)CC3)CC2)n1 [DDa-1]
kinases with significant protein level reduction (LC/MS proteomics) (HEK293T cells): CSK and LIMK2; also recorded: TEC and TNK2

CC(=O)N1CCN(c2ccc3c(NCCN)nc(C4(c5ccc(Cl)cc5)CCCCC4)nc3c2)CC1 [compound 13]
concentrations with loss of viability (TMD8 BTK-GFP/mCh cells; TMD8 BTK-GFP/mCh, 24 h): > 5 µM | concentrations leading to cellular toxicity (TMD8 BTK-GFP/mCh cells; discussion): 5 to 10 µM

Reference: paper PMC10766610, “DCAF1-based PROTACs with activity against clinically validated targets overcoming intrinsic- and acquired-degrader resistance” (Nature Communications, 2024)
